According to US20100210635A1, “RENIN INHIBITORS” (Takeda Pharmaceutical Company Limited, priority 2006, published 2010):

These molecules were tested against T1, Recombinant human renin (Homo sapiens, UniProt P00797) (assay: In vitro enzymatic activity assay of Renin inhibitors (fluorescence, QXL520/HiLyteFluo488 peptide substrate)). Settings: recombinant human renin 3 nM, 1 μM substrate, 37° C., pH 7.4; values given as ranges; read-out: IC50 of Exemplified Compounds Against Renin.
T1 construct: isolate the active form (residues 67-406); made in house; host or cells: FreeStyle 293-F cells (transient expression of pcDNA3.1(+)/hREN)
T1 sequence (P00797 67-406): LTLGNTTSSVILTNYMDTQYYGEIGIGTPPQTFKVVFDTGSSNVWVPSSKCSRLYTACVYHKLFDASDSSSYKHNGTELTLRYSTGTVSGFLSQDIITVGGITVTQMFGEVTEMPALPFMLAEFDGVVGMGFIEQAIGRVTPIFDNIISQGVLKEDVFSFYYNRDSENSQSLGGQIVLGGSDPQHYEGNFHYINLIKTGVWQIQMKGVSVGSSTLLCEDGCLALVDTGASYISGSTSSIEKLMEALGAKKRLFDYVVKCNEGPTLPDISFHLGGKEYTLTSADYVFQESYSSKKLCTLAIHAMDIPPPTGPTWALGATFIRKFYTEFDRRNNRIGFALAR
Format: biochemical
Excerpt: Test compounds in varying concentrations may be reacted with recombinant human renin in the presence of substrate, e.g., QXL520-γ-Abu-Ile-His-Pro-Phe-His-Leu-Val-Ile-His-Thr-Lys (HiLyteFluo488)-Arg-OH (Anaspec, San Jose, Calif.). The reaction can be followed kinetically using fluorescence (excitation λ=485 nm; emission λ=538 nm). Inhibition constants (IC50) may be calculated by non-linear curve fitting of the compound concentrations and fluorescence intensities to the standard IC50 equation.
Solutions of test compounds in varying concentrations (<2 mM final concentration) are prepared in dimethyl sulfoxide (DMSO) and then diluted into assay buffer comprising 50 mM Hepes, 1 mM EDTA, 1 mM DTT, 0.1 mg/ml BSA, 0.01% Brij35, pH 7.4. Alternatively, the assay can be performed with a high BSA concentration, wherein the buffer contains an additional 2% BSA.
Recombinant human renin (3 nM final concentration) is added to the dilutions and pre-incubated with the compounds for 10 minutes at 37° C. As described in Examples A-C above, human Renin can be obtained by expressing preprorenin (residue 1-406) in mammalian cells, treating the prorenin (residues 24-406) contained in the culture supernatant with trypsin, and isolate the active form (residues 67-406). After pre-incubation, the reaction is initiated with 1 μM of substrate QXL520-γ-Abu-Ile-His-Pro-Phe-His-Leu-Val-Ile-His-Thr-Lys (HiLyteFluo488)-Arg-OH (Anaspec, San Jose, Calif.). The final DMSO in the assay is 5%. The total volume of the reaction mixture is 20 μL, which can be placed on Greiner 384-well small volume plates.
Renin activity may be determined via fluorescence (excitation λ=485 nm; emission λ=538 nm), e.g., on a Molecular Devices SPECTROmax GEMINI XPS. The fluorescence intensity is determined upon the addition of substrate and determined again after incubation at 37° C. for one hour. The fluorescence intensity of a blank (no inhibition) using vehicle alone is also determined. Renin activity is linearly proportional to the change in fluorescence observed (final−initial).
The percent inhibition of Renin at a given compound concentration is defined as:
100%×[1−(Fcompound/Fblank)]
where Fcompound is the observed fluorescence at a given concentration of test compound and Fblank is the observed fluorescence in the presence of vehicle alone.
The pIC50 value (negative log of the molar concentration of the compound that produces 50% inhibition) of a test compound is calculated by non-linear least squares curve fitting of the equation: […]
to percent inhibition versus compound concentration. The 50% inhibitory concentration (IC50) of a test compound is calculated by raising 10 to the negative pIC50 (10^−pIC50).

| SMILES | IC50 [µM] |
| --- | --- |
| CC1(C)CC(CC(=O)N2CCNC[C@H]2Cc2ccccc2)(c2ccccc2)CCO1 (stereo partly drawn) [Example 20, 1-((R)-2-Benzylpiperazin-1-yl)-2-(2,2-dimethyl-4-phenyltetrahydro-2H-pyran-4-yl)ethanone] | 0.5 to 5 |
| CC(=O)NCc1ccc(C)nc1Oc1cc(C)ccc1CCC(=O)N1CCNC[C@H]1Cc1ccccc1 [Example 44, (R)—N-((2-(2-(3-(2-benzylpiperazin-1-yl)-3-oxopropyl)-5-methylphenoxy)-6-methylpyridin-3-yl)methyl)acetamide] | 0.5 to 5 |
| O=C(CCN(c1ccccc1)c1ccccc1)N1CCNC[C@H]1Cc1ccccc1 [Example 58, (R)-1-(2-benzylpiperazin-1-yl)-3-(diphenylamino)propan-1-one] | 5 to 50 |
| CC(=O)NCc1cc(C(F)(F)F)ccc1Oc1ccc(C)cc1CCC(=O)N1CCNC[C@H]1Cc1ccccc1 [Example 47, (R)—N-(2-(2-(3-(2-benzylpiperazin-1-yl)-3-oxopropyl)-4-methylphenoxy)-5-(trifluoromethyl)benzyl)acetamide] | 0.5 to 5 |
| COc1ccc(Oc2ccccc2CCC(=O)N2CCNC[C@H]2Cc2ccccc2)cc1 [Example 51, (R)-1-(2-benzylpiperazin-1-yl)-3-(2-(4-methoxyphenoxy)-phenyl)propan-1-one] | 0.5 to 5 |
| O=C(CCCc1ccccc1)N1CCNC[C@H]1Cc1ccccc1 [Example 19, (R)-1-(2-Benzylpiperazin-1-yl)-4-phenylbutan-1-one] | 5 to 50 |
| O=C(NC1(CC(=O)N2CCNC[C@H]2Cc2ccccc2)CCCCC1)c1ccccc1 [Example 64, (R)—N-(1-(2-(2-benzylpiperazin-1-yl)-2-oxoethyl)cyclohexyl)benzamide] | 5 to 50 |
| C[C@@H](CC(=O)N1CCNC[C@H]1Cc1ccccc1)c1ccccc1 [Example 18, (S)-1-((R)-2-Benzylpiperazin-1-yl)-3-phenylbutan-1-one] | 5 to 50 |
| O=C(Oc1ccccc1CCC(=O)N1CCNC[C@H]1Cc1ccccc1)c1ccccc1 [Example 21, (R)-2-(3-(2-Benzylpiperazin-1-yl)-3-oxopropyl)phenyl benzoate] | 0.5 to 5 |

Further lines, results first:

| IC50 [µM] | SMILES |
| --- | --- |
| 0.5 to 5 | O=S(=O)(CC(c1ccccc1)c1ccccc1)N1CCNC[C@H]1Cc1ccccc1 [Example 13, (R)-2-Benzyl-1-(2,2-diphenylethylsulfonyl)piperazine] |
| 0.5 to 5 | CC(=O)Nc1cccc(Oc2ccccc2CCC(=O)N2CCNC[C@H]2Cc2ccccc2)c1 [Example 33, (R)—N-(3-(2-(3-(2-Benzylpiperazin-1-yl)-3-oxopropyl)phenoxy)phenyl)acetamide] |
| < 0.5 | COC(=O)CCc1ccccc1Oc1ccccc1CCC(=O)N1CCNC[C@H]1Cc1ccccc1 [Example 67, (R)-methyl 3-(2-(2-(3-(2-benzylpiperazin-1-yl)-3-oxopropyl)phenoxy)phenyl)propanoate] |
| < 0.5 | CC(=O)NCCc1cc(C)ccc1Oc1ccccc1CCC(=O)N1CCNC[C@H]1Cc1ccccc1 [Example 49, (R)—N-(2-(2-(3-(2-benzylpiperazin-1-yl)-3-oxopropyl)phenoxy)-5-methylphenethyl)acetamide] |
| < 0.5 | CC(=O)NCCc1cc(C)ccc1Oc1cc(C)ccc1CCC(=O)N1CCNC[C@H]1Cc1ccccc1 [Example 27] |
| < 0.5 | CN(C)c1cccc(Oc2ccccc2CCC(=O)N2CCNC[C@H]2Cc2ccccc2)c1 [Example 31, (R)-1-(2-Benzylpiperazin-1-yl)-3-(2-(3-(dimethylamino)phenoxy)phenyl)propan-1-one] |
| < 0.5 | COC(=O)COc1ccc(C[C@@H]2CNCCN2C(=O)CCc2ccccc2Cc2ccccc2CCNC(C)=O)cc1 [Example 92, (R)-Methyl 2-(4-((1-(3-(2-(2-(2-acetamidoethyl)benzyl)phenyl)propanoyl)piperazin-2-yl)methyl)phenoxy)acetate] |
| < 0.5 | CC(=O)NCCc1ccccc1Oc1ccccc1CCC(=O)N1CCNC[C@H]1Cc1ccccc1 [Example 24, (R)—N-(2-(2-(3-(2-Benzylpiperazin-1-yl)-3-oxopropyl)phenoxy)phenethyl)acetamide] |
